Consider two compounds from patent US5463052A, “Method for producing benzylidene derivatives” (Shionogi & Co., Ltd., priority 1993, dated 1995).

Holding throughout (format): cell-based
The subject of assay [1] is production of LTB4 in rat celiac cells. Description: inhibitory activity against the production of LTB4 in rat celiac cells (Rat PEC). An excerpt: (§1) These benzylidene derivatives of the formula III can be prepared in a conventional manner, for example, according to the following reaction scheme. [drawing 5] In the reaction scheme above, R is a as defined above and R^3 is hydroxy-protecting group in EP patent application No. 93308369.3 (Publication No. 595546) corresponding to U.S. patent application No. 08/142,146. Thus, hydroxy-protected 3,5-di-tert-butyl-4-hydroxybenzaldehyde 4 is reacted with γ-sultam derivative 2 under a conditions for aldol reaction to obtain an aldol addition compound 5. The compound […], when deprotected and dehydrated in the presence of an acid, gives the objective benzylidene derivative 3' as a mixture of stereoisomers in (E)- and (Z) forms, which is then subjected to resolution, when a given isomer is desired.

Assay [2] relates to production of IL-1 in THP-1 cells. Description: inhibitory activity against the production of IL-1 under LPS stimulation in THP-1 cells. Conditions: Homo sapiens, read-out: L-1 (THP-1) IC50.
From the text: as §1

In assay [3] the test system is production of PGE2 in rat synovial membrane cells. Description: inhibitory activity against the production of PGE2 in rat synovial membrane cells (Rat SVC).
From the text: as §1

As for `CN1CC/C(=C\c2cc(C(C)(C)C)c(O)c(C(C)(C)C)c2)S1(=O)=O` [(E), (E)-5-(3,5-di-tert-Butyl-4-hydroxybenzylidene)-2-methyl-1,2-isothiazolidine-1,1-dioxide], the IC50 in assay [1] is 2800 nM; in assay [2] it was 21000 nM; in assay [3], less than 1 nM.

For the compound `CN1CC/C(=C/c2cc(C(C)(C)C)c(O)c(C(C)(C)C)c2)S1(=O)=O` [(Z), 5-(3,5-di-tert-butyl-4-hydroxybenzylidene)-2-methyl-1,2-isothiazolidine-1,1-dioxide], the figures for the IC50 in assay [1], in assay [2] and in assay [3] were 1800 nM, 29000 nM and less than 1 nM, respectively.
